Each molecule was assayed on A375 melanoma cells (B-Raf V600E mutation) (assay: A375 (A375_P-ERK) cell activity / cell growth inhibition assay). Conditions: Homo sapiens, A-375; A375 cells (text: A375_P-ERK).
Assay type: cell-based, human

IC50 | Structure (SMILES)
< 1 µM | CC1CCN(S(=O)(=O)Nc2cccc(C(=O)c3c[nH]c4ncc(-c5cnc(C6CC6)nc5)cc34)c2F)C1 (centres unmarked) [P-0247, N-[3-[5-(2-cyclopropylpyrimidin-5-yl)-1H-pyrrolo[2,3-b]pyridine-3-carbonyl]-2-fluoro-phenyl]-3-methyl-pyrrolidine-1-sulfonamide]
< 1 µM | N#CC1(c2ccc(-c3cnc4[nH]cc(C(=O)c5c(F)ccc(NS(=O)(=O)N6CCCC6)c5F)c4c3)cc2)CC1 [P-0248, N-[3-[5-[4-(1-cyanocyclopropyl)phenyl]-1H-pyrrolo[2,3-b]pyridine-3-carbonyl]-2,4-difluoro-phenyl]pyrrolidine-1-sulfonamide]
< 1 µM | CN(C1CC1)S(=O)(=O)Nc1cccc(C(=O)c2c[nH]c3ncc(-c4cnc(C5CC5)nc4)cc23)c1F [P-0249, 3-[3-[[cyclopropyl(methyl)sulfamoyl]amino]-2-fluoro-benzoyl]-5-(2-cyclopropylpyrimidin-5-yl)-1H-pyrrolo[2,3-b]pyridine]
> 1 µM | CCCNS(=O)(=O)Nc1cccc(C(=O)c2c[nH]c3ncc(-c4cnc(C5CC5)nc4)cc23)c1F [P-0251, [5-(2-cyclopropylpyrimidin-5-yl)-1H-pyrrolo[2,3-b]pyridin-3-yl]-[2-fluoro-3-(propylsulfamoylamino)phenyl]methanone]
< 1 µM | CN(C1CC1)S(=O)(=O)Nc1ccc(F)c(C(=O)c2c[nH]c3ncc(-c4cnc(C5CC5)nc4)cc23)c1F [P-0252, 3-[3-[[cyclopropyl(methyl)sulfamoyl]amino]-2,6-difluoro-benzoyl]-5-(2-cyclopropylpyrimidin-5-yl)-1H-pyrrolo[2,3-b]pyridine]
> 1 µM | NC(=O)C1(c2ccc(-c3cnc4[nH]cc(C(=O)c5cccc(NS(=O)(=O)N6CCCC6)c5F)c4c3)cc2)CC1 [P-0253, 1-[4-[3-[2-fluoro-3-(pyrrolidin-1-ylsulfonylamino)benzoyl]-1H-pyrrolo[2,3-b]pyridin-5-yl]phenyl]cyclopropanecarboxamide]
< 1 µM | CCOc1ncc(-c2cnc3[nH]cc(C(=O)c4c(F)ccc(NS(=O)(=O)N(C)CC)c4F)c3c2)cn1 [P-0256, 5-(2-ethoxypyrimidin-5-yl)-3-[3-[[ethyl(methyl)sulfamoyl]amino]-2,6-difluoro-benzoyl]-1H-pyrrolo[2,3-b]pyridine]
< 1 µM | CCN(C)S(=O)(=O)Nc1ccc(F)c(C(=O)c2c[nH]c3ncc(-c4cnc(N5CCOCC5)nc4)cc23)c1F [P-0258, 4-[5-[3-[3-[[ethyl(methyl)sulfamoyl]amino]-2,6-difluoro-benzoyl]-1H-pyrrolo[2,3-b]pyridin-5-yl]pyrimidin-2-yl]morpholine]
< 1 µM | CCN(C)S(=O)(=O)Nc1ccc(F)c(C(=O)c2c[nH]c3ncc(-c4cccc(N5CCOCC5)c4)cc23)c1F [P-0259, 4-[3-[3-[3-[[ethyl(methyl)sulfamoyl]amino]-2,6-difluoro-benzoyl]-1H-pyrrolo[2,3-b]pyridin-5-yl]phenyl]morpholine]
< 1 µM | CN1CCN(c2ncc(-c3cnc4[nH]cc(C(=O)c5c(F)ccc(NS(=O)(=O)N6CCCC6)c5F)c4c3)cn2)CC1 [P-0260, N-[2,4-difluoro-3-[5-[2-(4-methylpiperazin-1-yl)pyrimidin-5-yl]-1H-pyrrolo[2,3-b]pyridine-3-carbonyl]phenyl]pyrrolidine-1-sulfonamide]
< 1 µM | O=C(c1c(F)ccc(NS(=O)(=O)N2CCCC2)c1F)c1c[nH]c2ncc(-c3cnc(N4CCNCC4)nc3)cc12 [P-0261, N-[2,4-difluoro-3-[5-(2-piperazin-1-ylpyrimidin-5-yl)-1H-pyrrolo[2,3-b]pyridine-3-carbonyl]phenyl]pyrrolidine-1-sulfonamide]
< 1 µM | O=C(c1c(F)ccc(NS(=O)(=O)N2CCCC2)c1F)c1c[nH]c2ncc(-c3cnc(N4CCC(O)CC4)nc3)cc12 [P-0262, N-[2,4-difluoro-3-[5-[2-(4-hydroxy-1-piperidyl)pyrimidin-5-yl]-1H-pyrrolo[2,3-b]pyridine-3-carbonyl]phenyl]pyrrolidine-1-sulfonamide]
< 1 µM | CCN(C)S(=O)(=O)Nc1ccc(F)c(C(=O)c2c[nH]c3ncc(-c4cnc(N5CCN(C)CC5)nc4)cc23)c1F [P-0263, 3-[3-[[ethyl(methyl)sulfamoyl]amino]-2,6-difluoro-benzoyl]-5-[2-(4-methylpiperazin-1-yl)pyrimidin-5-yl]-1H-pyrrolo[2,3-b]pyridine]
< 1 µM | CC(C)(O)c1nc(-c2cnc3[nH]cc(C(=O)c4c(F)ccc(NS(=O)(=O)N5CCCC5)c4F)c3c2)cs1 [P-0265, N-[2,4-difluoro-3-[5-[2-(1-hydroxy-1-methyl-ethyl)thiazol-4-yl]-1H-pyrrolo[2,3-b]pyridine-3-carbonyl]phenyl]pyrrolidine-1-sulfonamide]
< 1 µM | CCN(C)S(=O)(=O)Nc1ccc(F)c(C(=O)c2c[nH]c3ncc(-c4cnc(N5CCNCC5)nc4)cc23)c1F [P-0268, 3-[3-[[ethyl(methyl)sulfamoyl]amino]-2,6-difluoro-benzoyl]-5-(2-piperazin-1-ylpyrimidin-5-yl)-1H-pyrrolo[2,3-b]pyridine]
< 1 µM | O=C(c1c(F)ccc(NS(=O)(=O)N2CCCC2)c1F)c1c[nH]c2ncc(-c3cnc(N4CCC4)nc3)cc12 [P-0269, N-[3-[5-[2-(azetidin-1-yl)pyrimidin-5-yl]-1H-pyrrolo[2,3-b]pyridine-3-carbonyl]-2,4-difluoro-phenyl]pyrrolidine-1-sulfonamide]

IC50 | Structure (SMILES)
< 1 µM | C[C@@H]1CCN(S(=O)(=O)Nc2cccc(C(=O)c3c[nH]c4ncc(-c5cnc(C6CC6)nc5)cc34)c2F)C1 [P-0271, (3R)—N-[3-[5-(2-cyclopropylpyrimidin-5-yl)-1H-pyrrolo[2,3-b]pyridine-3-carbonyl]-2-fluoro-phenyl]-3-methyl-pyrrolidine-1-sulfonamide]
< 1 µM | O=C(c1c(F)ccc(NS(=O)(=O)N2CCCC2)c1F)c1c[nH]c2ncc(-c3ccncc3)cc12 [P-0273, N-[2,4-difluoro-3-[5-(4-pyridyl)-1H-pyrrolo[2,3-b]pyridine-3-carbonyl]phenyl]pyrrolidine-1-sulfonamide]
< 1 µM | O=C(c1cccc(NS(=O)(=O)N2CCCC2)c1F)c1c[nH]c2ncc(C3CC3)cc12 [P-0274, N-[3-(5-cyclopropyl-1H-pyrrolo[2,3-b]pyridine-3-carbonyl)-2-fluoro-phenyl]pyrrolidine-1-sulfonamide]
< 1 µM | CCN(C)S(=O)(=O)Nc1ccc(F)c(C(=O)c2c[nH]c3ncc(-c4cnc(N5CCC(O)CC5)nc4)cc23)c1F [P-0275]
< 1 µM | CCN(C)S(=O)(=O)Nc1ccc(F)c(C(=O)c2c[nH]c3ncc(-c4cccc(C5(C#N)CC5)c4)cc23)c1F [P-0276, 5-[3-(1-cyanocyclopropyl)phenyl]-3-[3-[[ethyl(methyl)sulfamoyl]amino]-2,6-difluoro-benzoyl]-1H-pyrrolo[2,3-b]pyridine]
< 1 µM | CCN(C)S(=O)(=O)Nc1ccc(F)c(C(=O)c2c[nH]c3ncc(-c4cnc(N5CCC5)nc4)cc23)c1F [P-0277, 5-[2-(azetidin-1-yl)pyrimidin-5-yl]-3-[3-[[ethyl(methyl)sulfamoyl]amino]-2,6-difluoro-benzoyl]-1H-pyrrolo[2,3-b]pyridine]
> 1 µM | Nc1ncc(-c2cnc3[nH]cc(C(=O)c4c(F)ccc(NS(=O)(=O)N5CCCC5)c4F)c3c2)cn1 [P-0279, N-[3-[5-(2-aminopyrimidin-5-yl)-1H-pyrrolo[2,3-b]pyridine-3-carbonyl]-2,4-difluoro-phenyl]pyrrolidine-1-sulfonamide]
< 1 µM | Nc1nccc(-c2cnc3[nH]cc(C(=O)c4c(F)ccc(NS(=O)(=O)N5CCCC5)c4F)c3c2)n1 [P-0280, N-[3-[5-(2-aminopyrimidin-4-yl)-1H-pyrrolo[2,3-b]pyridine-3-carbonyl]-2,4-difluoro-phenyl]pyrrolidine-1-sulfonamide]
< 1 µM | O=C(c1cccc(NS(=O)(=O)N2CCCC2)c1F)c1c[nH]c2ncc(-c3ccncc3)cc12 [P-0281, N-[2-fluoro-3-[5-(4-pyridyl)-1H-pyrrolo[2,3-b]pyridine-3-carbonyl]phenyl]pyrrolidine-1-sulfonamide]
< 1 µM | O=C(c1c(F)ccc(NS(=O)(=O)N2CCCC2)c1F)c1c[nH]c2ncc(-c3ccnc(N4CCOCC4)n3)cc12 [P-0282, N-[2,4-difluoro-3-[5-(2-morpholinopyrimidin-4-yl)-1H-pyrrolo[2,3-b]pyridine-3-carbonyl]phenyl]pyrrolidine-1-sulfonamide]
> 1 µM | CCN(C)S(=O)(=O)Nc1ccc(F)c(C(=O)c2c[nH]c3ncc(-c4ccnc(F)c4)cc23)c1F [P-0283, 3-[3-[[ethyl(methyl)sulfamoyl]amino]-2,6-difluoro-benzoyl]-5-(2-fluoro-4-pyridyl)-1H-pyrrolo[2,3-b]pyridine]
< 1 µM | O=C(c1c(F)ccc(NS(=O)(=O)N2CCCC2)c1F)c1c[nH]c2ncc(-c3ccnc(N4CCOCC4)c3)cc12 [P-0284, N-[2,4-difluoro-3-[5-(2-morpholino-4-pyridyl)-1H-pyrrolo[2,3-b]pyridine-3-carbonyl]phenyl]pyrrolidine-1-sulfonamide]
< 1 µM | CN1CCN(c2cc(-c3cnc4[nH]cc(C(=O)c5c(F)ccc(NS(=O)(=O)N6CCCC6)c5F)c4c3)ccn2)CC1 [P-0285, N-[2,4-difluoro-3-[5-[2-(4-methylpiperazin-1-yl)-4-pyridyl]-1H-pyrrolo[2,3-b]pyridine-3-carbonyl]phenyl]pyrrolidine-1-sulfonamide]
< 1 µM | COc1cc(-c2cnc3[nH]cc(C(=O)c4c(F)ccc(NS(=O)(=O)N5CCCC5)c4F)c3c2)ccn1 [P-0287, N-[2,4-difluoro-3-[5-(2-methoxy-4-pyridyl)-1H-pyrrolo[2,3-b]pyridine-3-carbonyl]phenyl]pyrrolidine-1-sulfonamide]
< 1 µM | O=C(c1c(F)ccc(NS(=O)(=O)N2CC[C@H](F)C2)c1F)c1c[nH]c2ncc(-c3cnc(C4CC4)nc3)cc12 [P-0289, (3S)—N-[3-[5-(2-cyclopropylpyrimidin-5-yl)-1H-pyrrolo[2,3-b]pyridine-3-carbonyl]-2,4-difluoro-phenyl]-3-fluoro-pyrrolidine-1-sulfonamide]
< 1 µM | CCN(C)S(=O)(=O)Nc1ccc(F)c(C(=O)c2c[nH]c3ncc(-c4cnc(N(C)C)nc4)cc23)c1F [P-0292, 5-[2-(dimethylamino)pyrimidin-5-yl]-3-[3-[[ethyl(methyl)sulfamoyl]amino]-2,6-difluoro-benzoyl]-1H-pyrrolo[2,3-b]pyridine]

— patent publication US11337976B2 (Plexxikon Inc., priority 2011, dated 2022)
